Assay results from PubChem BioAssay AID1963979 (Molecular Pharmacology Branch, DTP, NCI, 2024).
Blank lines part the entries; values can stand above or below the compound they belong to.

System: 361931-004-R-J1-PDC multicell spheroid viability
Assay: Anticancer human tumor 361931-004-R-J1-PDC patient-derived colon adenocarcinoma cell line growth inhibition [PI3K]
Settings: for IC50: curve of first compound; for viability, T/C: stronger effect = lower value
In short: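 Combination activity was assessed by viability in multicellular tumor spheroids carrying HUVEC and MSC components. Agents were tested with PI3K inhibitors from a Cmax-based top dose (or 10 microM) downward in half-log increments.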

[1] = second compound 0.0316 µM, first compound 0.0316 µM
[2] = second compound 0.0316 µM, first compound 0.1 µM
[3] = second compound 0.1 µM, first compound 0.0316 µM
[4] = second compound 0.1 µM, first compound 0.1 µM
[5] = second compound 0.316 µM, first compound 0.0316 µM
[6] = second compound 0.316 µM, first compound 0.1 µM
[7] = second compound 1 µM, first compound 0.0316 µM
[8] = second compound 1 µM, first compound 0.1 µM
[9] = second compound 3.16 µM, first compound 0.0316 µM
[10] = second compound 3.16 µM, first compound 0.1 µM
[11] = second compound 10 µM, first compound 0.0316 µM
[12] = second compound 10 µM, first compound 0.1 µM
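Further: spheroids exposed to agents for seven days before readout.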

IC50 (second compound 0.0316 µM): > 0.1 µM
IC50 (second compound 0.1 µM): > 0.1 µM
IC50 (second compound 0.316 µM): > 0.1 µM
IC50 (second compound 1 µM): > 0.1 µM
IC50 (second compound 3.16 µM): > 0.1 µM
IC50 (second compound 10 µM): > 0.1 µM
Compound: CC(=O)c1c(C)c2cnc(Nc3ccc(N4CCNCC4)cn3)nc2n(C2CCCC2)c1=O + CC(Nc1ncnc2nc[nH]c12)c1cc2cccc(Cl)c2c(=O)n1-c1ccccc1
viability, T/C (second compound 0.0316 µM, first compound 0.000316 µM): 98.3%
viability, T/C (second compound 0.0316 µM, first compound 0.001 µM): 103%
viability, T/C (second compound 0.0316 µM, first compound 0.00316 µM): 97.5%
viability, T/C (second compound 0.0316 µM, first compound 0.01 µM): 97.2%
viability, T/C [1]: 102%
viability, T/C [2]: 93.2%
viability, T/C (second compound 0.1 µM, first compound 0.000316 µM): 103%
viability, T/C (second compound 0.1 µM, first compound 0.001 µM): 103%
viability, T/C (second compound 0.1 µM, first compound 0.00316 µM): 98.4%
viability, T/C (second compound 0.1 µM, first compound 0.01 µM): 104%
viability, T/C [3]: 99.5%
viability, T/C [4]: 98.4%
viability, T/C (second compound 0.316 µM, first compound 0.000316 µM): 108%
viability, T/C (second compound 0.316 µM, first compound 0.001 µM): 97.7%
viability, T/C (second compound 0.316 µM, first compound 0.00316 µM): 105%
viability, T/C (second compound 0.316 µM, first compound 0.01 µM): 97.9%
viability, T/C [5]: 103%
viability, T/C [6]: 97.5%
viability, T/C (second compound 1 µM, first compound 0.000316 µM): 101%
viability, T/C (second compound 1 µM, first compound 0.001 µM): 100%
viability, T/C (second compound 1 µM, first compound 0.00316 µM): 101%
viability, T/C (second compound 1 µM, first compound 0.01 µM): 105%
viability, T/C [7]: 108%
viability, T/C [8]: 89%
viability, T/C (second compound 3.16 µM, first compound 0.000316 µM): 96.2%
viability, T/C (second compound 3.16 µM, first compound 0.001 µM): 100%
viability, T/C (second compound 3.16 µM, first compound 0.00316 µM): 97.2%
viability, T/C (second compound 3.16 µM, first compound 0.01 µM): 93.7%
viability, T/C [9]: 100%
viability, T/C [10]: 81.3%
viability, T/C (second compound 10 µM, first compound 0.000316 µM): 92.7%
viability, T/C (second compound 10 µM, first compound 0.001 µM): 107%
viability, T/C (second compound 10 µM, first compound 0.00316 µM): 96.5%
viability, T/C (second compound 10 µM, first compound 0.01 µM): 94.1%
viability, T/C [11]: 101%
viability, T/C [12]: 80.5%

IC50 (second compound 0.0316 µM): 5.29 µM
IC50 (second compound 0.1 µM): 5.19 µM
IC50 (second compound 0.316 µM): 5.59 µM
IC50 (second compound 1 µM): 5.25 µM
IC50 (second compound 3.16 µM): 5.52 µM
IC50 (second compound 10 µM): 4.9 µM
Compound: CCCS(=O)(=O)Nc1ccc(F)c(C(=O)c2c[nH]c3ncc(-c4ccc(Cl)cc4)cc23)c1F + CC(Nc1ncnc2nc[nH]c12)c1cc2cccc(Cl)c2c(=O)n1-c1ccccc1
viability, T/C [1]: 111%
viability, T/C [2]: 97.4%
viability, T/C (second compound 0.0316 µM, first compound 0.316 µM): 96.4%
viability, T/C (second compound 0.0316 µM, first compound 1 µM): 97.3%
viability, T/C (second compound 0.0316 µM, first compound 3.16 µM): 84.7%
viability, T/C (second compound 0.0316 µM, first compound 10 µM): 7.53%
viability, T/C [3]: 108%
viability, T/C [4]: 101%
viability, T/C (second compound 0.1 µM, first compound 0.316 µM): 94.3%
viability, T/C (second compound 0.1 µM, first compound 1 µM): 89.2%
viability, T/C (second compound 0.1 µM, first compound 3.16 µM): 84.9%
viability, T/C (second compound 0.1 µM, first compound 10 µM): 6.96%
viability, T/C [5]: 105%
viability, T/C [6]: 101%
viability, T/C (second compound 0.316 µM, first compound 0.316 µM): 96.1%
viability, T/C (second compound 0.316 µM, first compound 1 µM): 90.9%
viability, T/C (second compound 0.316 µM, first compound 3.16 µM): 92.1%
viability, T/C (second compound 0.316 µM, first compound 10 µM): 6.91%
viability, T/C [7]: 100%
viability, T/C [8]: 99.7%
viability, T/C (second compound 1 µM, first compound 0.316 µM): 94.9%
viability, T/C (second compound 1 µM, first compound 1 µM): 96.8%
viability, T/C (second compound 1 µM, first compound 3.16 µM): 83.5%
viability, T/C (second compound 1 µM, first compound 10 µM): 7.4%
viability, T/C [9]: 98.8%
viability, T/C [10]: 102%
viability, T/C (second compound 3.16 µM, first compound 0.316 µM): 103%
viability, T/C (second compound 3.16 µM, first compound 1 µM): 95.5%
viability, T/C (second compound 3.16 µM, first compound 3.16 µM): 90.1%
viability, T/C (second compound 3.16 µM, first compound 10 µM): 7.12%
viability, T/C [11]: 99.3%
viability, T/C [12]: 101%
viability, T/C (second compound 10 µM, first compound 0.316 µM): 98.1%
viability, T/C (second compound 10 µM, first compound 1 µM): 88.3%
viability, T/C (second compound 10 µM, first compound 3.16 µM): 78.1%
viability, T/C (second compound 10 µM, first compound 10 µM): 7.3%
